Results as given in PMC12028158, “Synthesis and In Vitro Evaluation of the Anticancer Effect of Novel Phosphonium Vindoline Derivatives” (International Journal of Molecular Sciences, 2025).

Key:
Assay type in all cases: cell-based
OVCAR-8 = assay: NCI60 one-dose screen; conditions: Homo sapiens; OVCAR-8, 10 μM, one-dose; read-out: Growth percent
SK-MEL-28 = assay: NCI60 one-dose screen; conditions: Homo sapiens; SK-MEL-28, 10 μM, one-dose; read-out: Growth percent
SR = assay: NCI60 one-dose screen; conditions: Homo sapiens, 10 μM, one-dose, read-out: Growth percent
SF-539 = assay: NCI60 one-dose screen; conditions: Homo sapiens; SF-539, 10 μM, one-dose; read-out: Growth percent
786-0 = assay: NCI60 one-dose screen; conditions: Homo sapiens; 786-0, 10 μM, one-dose; read-out: Growth percent
Renal Cancer panel = assay: NCI60 five-dose screen, panel mean; conditions: Homo sapiens; mean over Renal Cancer panel; read-out: Mean GI50
HS 578T = assay: NCI60 one-dose screen; conditions: Homo sapiens; HS 578T, 10 μM, one-dose; read-out: Growth percent
A498 [1] = assay: NCI60 one-dose screen; conditions: Homo sapiens; A498, 10 μM, one-dose; read-out: Growth percent
PC-3 [2] = assay: NCI60 one-dose screen; conditions: Homo sapiens; PC-3, 10 μM, one-dose; read-out: Growth percent
DU-145 = assay: NCI60 one-dose screen; conditions: Homo sapiens; DU-145, 10 μM, one-dose; read-out: Growth percent
ACHN = assay: NCI60 one-dose screen; conditions: Homo sapiens, 10 μM, one-dose, read-out: Growth percent
HOP-92 [3] = assay: NCI60 one-dose screen; conditions: Homo sapiens; HOP-92, 10 μM, one-dose; read-out: Growth percent
SK-OV-3 [4] = assay: NCI60 five-dose screen; conditions: Homo sapiens; SK-OV-3, Ovarian Cancer, five-dose; read-out: GI50
UACC-62 [5] = assay: NCI60 five-dose screen; conditions: Homo sapiens; UACC-62, Melanoma, five-dose; read-out: GI50
SK-OV-3 [6] = assay: NCI60 one-dose screen; conditions: Homo sapiens; SK-OV-3, 10 μM, one-dose; read-out: Growth percent
HOP-92 [7] = assay: NCI60 five-dose screen; conditions: Homo sapiens; HOP-92, Non-small Cell Lung Cancer, five-dose; read-out: GI50
SF-295 = assay: NCI60 five-dose screen; conditions: Homo sapiens; SF-295, CNS Cancer, five-dose; read-out: GI50
SN12C = assay: NCI60 one-dose screen; conditions: Homo sapiens, 10 μM, one-dose, read-out: Growth percent
NCI/ADR-RES = assay: NCI60 five-dose screen; conditions: Homo sapiens, Ovarian Cancer, five-dose, read-out: GI50
MDA-MB-435 = assay: NCI60 five-dose screen; conditions: Homo sapiens; MDA-MB-435, Melanoma, five-dose; read-out: GI50
HOP-62 = assay: NCI60 five-dose screen; conditions: Homo sapiens; HOP-62, Non-small Cell Lung Cancer, five-dose; read-out: GI50
HL-60(TB) = assay: NCI60 five-dose screen; conditions: Homo sapiens, HL-60, HL-60(TB), Leukemia, five-dose; read-out: GI50
OVCAR-3 = assay: NCI60 five-dose screen; conditions: Homo sapiens; OVCAR-3, Ovarian Cancer, five-dose; read-out: GI50
K-562 [8] = assay: NCI60 one-dose screen; conditions: Homo sapiens, K562; K-562, 10 μM, one-dose; read-out: Growth percent
BT-549 = assay: NCI60 five-dose screen; conditions: Homo sapiens; BT-549, Breast Cancer, five-dose; read-out: GI50
NCI-H460 = assay: NCI60 five-dose screen; conditions: Homo sapiens; NCI-H460, Non-small Cell Lung Cancer, five-dose; read-out: GI50
RPMI-8226 = assay: NCI60 one-dose screen; conditions: Homo sapiens; RPMI-8226, 10 μM, one-dose; read-out: Growth percent
KM12 = assay: NCI60 one-dose screen; conditions: Homo sapiens; KM12, 10 μM, one-dose; read-out: Growth percent
MALME-3M = assay: NCI60 one-dose screen; conditions: Homo sapiens; MALME-3M, 10 μM, one-dose; read-out: Growth percent
HT29 [9] = assay: NCI60 five-dose screen; conditions: Homo sapiens, HT-29; HT29, Colon Cancer, five-dose; read-out: GI50
NCI-H226 = assay: NCI60 one-dose screen; conditions: Homo sapiens; NCI-H226, 10 μM, one-dose; read-out: Growth percent
EKVX [10] = assay: NCI60 five-dose screen; conditions: Homo sapiens, Non-small Cell Lung Cancer, five-dose, read-out: GI50
SF-268 = assay: NCI60 one-dose screen; conditions: Homo sapiens; SF-268, 10 μM, one-dose; read-out: Growth percent
TK-10 = assay: NCI60 five-dose screen; conditions: Homo sapiens; TK-10, Renal Cancer, five-dose; read-out: GI50
A549/ATCC = assay: NCI60 five-dose screen; conditions: Homo sapiens; A549/ATCC, Non-small Cell Lung Cancer, five-dose; read-out: GI50
U251 [11] = assay: NCI60 one-dose screen; conditions: Homo sapiens, U-251; U251, 10 μM, one-dose; read-out: Growth percent
OVCAR-4 = assay: NCI60 five-dose screen; conditions: Homo sapiens; OVCAR-4, Ovarian Cancer, five-dose; read-out: GI50
U251 [12] = assay: NCI60 five-dose screen; conditions: Homo sapiens, U-251, U251, CNS Cancer, five-dose; read-out: GI50
MOLT-4 = assay: NCI60 one-dose screen; conditions: Homo sapiens; MOLT-4, 10 μM, one-dose; read-out: Growth percent
EKVX [13] = assay: NCI60 one-dose screen; conditions: Homo sapiens, 10 μM, one-dose, read-out: Growth percent
K-562 [14] = assay: NCI60 five-dose screen; conditions: Homo sapiens, K562; K-562, Leukemia, five-dose; read-out: GI50
UACC-62 [15] = assay: NCI60 one-dose screen; conditions: Homo sapiens; UACC-62, 10 μM, one-dose; read-out: Growth percent
SK-MEL-2 = assay: NCI60 one-dose screen; conditions: Homo sapiens; SK-MEL-2, 10 μM, one-dose; read-out: Growth percent
A498 [16] = assay: NCI60 five-dose screen; conditions: Homo sapiens; A498, Renal Cancer, five-dose; read-out: GI50
HT29 [17] = assay: NCI60 one-dose screen; conditions: Homo sapiens, HT-29; HT29, 10 μM, one-dose; read-out: Growth percent
COLO 205 = assay: NCI60 five-dose screen; conditions: Homo sapiens, COLO 205, COLO 205, Colon Cancer, five-dose; read-out: GI50
PC-3 [18] = assay: NCI60 five-dose screen; conditions: Homo sapiens; PC-3, Prostate Cancer, five-dose; read-out: GI50

SMILES: CC[C@]12C=CCN3CC[C@@]4(c5ccc(OC)cc5N(C)[C@H]4[C@@](O)(C(=O)OC)[C@@H]1OC(=O)CCC[P+](c1ccc(OC)cc1)(c1ccc(OC)cc1)c1ccc(OC)cc1)[C@@H]32 [9b]
- activity at 10 µM (OVCAR-8): -86.2%
- activity at 10 µM (SK-MEL-28): -96.3%
- activity at 10 µM (SR): 15%
- activity at 10 µM (SF-539): -98.9%
- activity at 10 µM (786-0): -89.5%
- GI50 (Renal Cancer panel): 3.01 µM
- activity at 10 µM (HS 578T): -65.4%
- activity at 10 µM (A498 [1]): -83.2%
- activity at 10 µM (PC-3 [2]): -78.8%
- activity at 10 µM (DU-145): -75.4%
- activity at 10 µM (ACHN): -95.8%
- activity at 10 µM (HOP-92 [3]): -82.9%
- GI50 (SK-OV-3 [4]): 1.02 µM
- GI50 (UACC-62 [5]): 0.603 µM
- activity at 10 µM (SK-OV-3 [6]): -85.1%
- GI50 (HOP-92 [7]): 0.344 µM
- GI50 (SF-295): 1.92 µM
- activity at 10 µM (SN12C): -93.4%
- GI50 (NCI/ADR-RES): 18.1 µM
- GI50 (MDA-MB-435): 0.48 µM
- GI50 (HOP-62): 1.66 µM
- GI50 (HL-60(TB)): 0.256 µM
- GI50 (OVCAR-3): 0.624 µM
- activity at 10 µM (K-562 [8]): -1.75%
- GI50 (BT-549): 1.05 µM
- GI50 (NCI-H460): 0.666 µM
- activity at 10 µM (RPMI-8226): -45.5%
- activity at 10 µM (KM12): -65.3%
- activity at 10 µM (MALME-3M): -97.8%
- GI50 (HT29 [9]): 0.371 µM
- activity at 10 µM (NCI-H226): -80.3%
- GI50 (EKVX [10]): 1.06 µM
- activity at 10 µM (SF-268): -34.3%
- GI50 (TK-10): 1.51 µM
- GI50 (A549/ATCC): 0.731 µM
- activity at 10 µM (U251 [11]): -93.7%
- GI50 (OVCAR-4): 0.76 µM
- GI50 (U251 [12]): 0.36 µM
- activity at 10 µM (MOLT-4): -36.8%
- activity at 10 µM (EKVX [13]): -85%
- GI50 (K-562 [14]): 0.556 µM
- activity at 10 µM (UACC-62 [15]): -97.1%
- activity at 10 µM (SK-MEL-2): -90.6%
- GI50 (A498 [16]): 2.34 µM
- activity at 10 µM (HT29 [17]): -84.3%
- GI50 (COLO 205): 0.194 µM
- GI50 (PC-3 [18]): 0.47 µM
